According to publication PMC9329436, “Optimization of the 4-anilinoquin(az)oline scaffold as epidermal growth factor receptor (EGFR) inhibitors for chordoma utilizing a toxicology profiling assay platform” (Scientific Reports, 2022):
Where two headings read alike, the source gives them in different places.

Columns and labels:
Assay type in all cases: biochemical
[1] = biological target: T1, 320 wild-type protein kinases (Homo sapiens, UniProt O43318); settings: singlicate
T1 sequence (O43318 1-606): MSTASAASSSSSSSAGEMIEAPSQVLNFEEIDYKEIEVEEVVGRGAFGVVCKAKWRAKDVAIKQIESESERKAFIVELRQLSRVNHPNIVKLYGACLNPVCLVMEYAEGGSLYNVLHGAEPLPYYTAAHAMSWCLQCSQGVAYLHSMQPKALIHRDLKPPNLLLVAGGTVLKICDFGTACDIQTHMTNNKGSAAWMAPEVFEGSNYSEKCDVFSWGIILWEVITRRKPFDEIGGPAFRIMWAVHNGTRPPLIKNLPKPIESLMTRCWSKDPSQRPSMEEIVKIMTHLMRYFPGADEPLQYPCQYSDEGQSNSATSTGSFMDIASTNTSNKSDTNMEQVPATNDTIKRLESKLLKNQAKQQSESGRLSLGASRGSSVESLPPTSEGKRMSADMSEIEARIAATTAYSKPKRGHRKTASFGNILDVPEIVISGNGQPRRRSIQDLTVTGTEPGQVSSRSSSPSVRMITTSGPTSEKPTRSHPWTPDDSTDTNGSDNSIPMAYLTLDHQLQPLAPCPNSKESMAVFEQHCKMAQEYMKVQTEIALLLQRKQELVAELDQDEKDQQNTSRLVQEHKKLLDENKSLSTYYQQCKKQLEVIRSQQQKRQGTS
Text: (§1) Table S4. Profiling of two compounds at two concentrations against 320 wild-type protein kinases; singlicate measurement; Residual activities (% of control).

[2] = biological target: 320 wild-type protein kinases (Homo sapiens, UniProt P43405); settings: kinase SYK aa1-635, singlicate
Text: as §1

[3] = biological target: 320 wild-type protein kinases (Homo sapiens, UniProt P10721); settings: KIT, singlicate
Text: as §1

[4] = biological target: T2, 320 wild-type protein kinases (Homo sapiens, UniProt P54762); settings: singlicate
T2 sequence (P54762 18-984): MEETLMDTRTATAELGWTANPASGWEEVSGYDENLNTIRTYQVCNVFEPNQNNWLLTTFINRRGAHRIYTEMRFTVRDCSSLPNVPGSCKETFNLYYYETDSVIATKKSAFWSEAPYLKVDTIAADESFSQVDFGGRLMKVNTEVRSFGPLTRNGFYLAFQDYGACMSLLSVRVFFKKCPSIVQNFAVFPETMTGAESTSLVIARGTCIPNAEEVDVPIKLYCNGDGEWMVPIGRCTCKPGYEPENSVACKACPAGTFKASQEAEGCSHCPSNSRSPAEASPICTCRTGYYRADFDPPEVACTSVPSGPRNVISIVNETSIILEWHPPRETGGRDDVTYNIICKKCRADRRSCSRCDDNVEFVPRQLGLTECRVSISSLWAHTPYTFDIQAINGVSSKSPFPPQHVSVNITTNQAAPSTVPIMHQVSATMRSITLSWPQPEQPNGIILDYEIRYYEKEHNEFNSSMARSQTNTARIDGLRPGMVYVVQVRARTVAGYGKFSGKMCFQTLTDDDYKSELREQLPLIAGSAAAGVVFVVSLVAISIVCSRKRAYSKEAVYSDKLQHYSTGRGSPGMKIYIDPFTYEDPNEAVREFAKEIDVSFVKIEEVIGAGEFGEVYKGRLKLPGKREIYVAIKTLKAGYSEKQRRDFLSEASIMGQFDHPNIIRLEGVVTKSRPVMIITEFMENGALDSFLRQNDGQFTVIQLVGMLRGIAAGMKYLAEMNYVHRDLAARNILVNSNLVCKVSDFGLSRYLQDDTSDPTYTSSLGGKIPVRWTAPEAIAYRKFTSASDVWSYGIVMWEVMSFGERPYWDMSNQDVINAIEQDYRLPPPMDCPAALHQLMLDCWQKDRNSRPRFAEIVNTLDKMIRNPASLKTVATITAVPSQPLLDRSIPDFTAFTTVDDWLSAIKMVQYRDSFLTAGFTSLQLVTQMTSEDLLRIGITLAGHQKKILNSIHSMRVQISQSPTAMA
Text: as §1

[5] = biological target: 320 wild-type protein kinases (Homo sapiens, UniProt O00506); settings: kinase STK25, singlicate
Text: as §1

Chain of 320 wild-type protein kinases (Homo sapiens, UniProt O00506) (O00506 whole entry): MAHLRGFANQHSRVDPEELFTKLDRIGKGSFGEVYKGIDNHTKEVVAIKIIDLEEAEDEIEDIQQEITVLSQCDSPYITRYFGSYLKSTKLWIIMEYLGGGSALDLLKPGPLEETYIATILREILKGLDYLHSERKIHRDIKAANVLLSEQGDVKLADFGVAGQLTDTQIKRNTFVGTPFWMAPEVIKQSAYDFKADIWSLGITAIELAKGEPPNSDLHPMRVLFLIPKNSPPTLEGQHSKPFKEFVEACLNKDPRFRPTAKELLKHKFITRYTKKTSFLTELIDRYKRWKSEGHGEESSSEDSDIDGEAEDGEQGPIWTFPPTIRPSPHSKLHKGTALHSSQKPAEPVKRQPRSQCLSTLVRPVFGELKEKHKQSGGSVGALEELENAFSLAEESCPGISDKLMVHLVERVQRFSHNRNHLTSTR
Chain of 320 wild-type protein kinases (Homo sapiens, UniProt P10721) (P10721 26-976): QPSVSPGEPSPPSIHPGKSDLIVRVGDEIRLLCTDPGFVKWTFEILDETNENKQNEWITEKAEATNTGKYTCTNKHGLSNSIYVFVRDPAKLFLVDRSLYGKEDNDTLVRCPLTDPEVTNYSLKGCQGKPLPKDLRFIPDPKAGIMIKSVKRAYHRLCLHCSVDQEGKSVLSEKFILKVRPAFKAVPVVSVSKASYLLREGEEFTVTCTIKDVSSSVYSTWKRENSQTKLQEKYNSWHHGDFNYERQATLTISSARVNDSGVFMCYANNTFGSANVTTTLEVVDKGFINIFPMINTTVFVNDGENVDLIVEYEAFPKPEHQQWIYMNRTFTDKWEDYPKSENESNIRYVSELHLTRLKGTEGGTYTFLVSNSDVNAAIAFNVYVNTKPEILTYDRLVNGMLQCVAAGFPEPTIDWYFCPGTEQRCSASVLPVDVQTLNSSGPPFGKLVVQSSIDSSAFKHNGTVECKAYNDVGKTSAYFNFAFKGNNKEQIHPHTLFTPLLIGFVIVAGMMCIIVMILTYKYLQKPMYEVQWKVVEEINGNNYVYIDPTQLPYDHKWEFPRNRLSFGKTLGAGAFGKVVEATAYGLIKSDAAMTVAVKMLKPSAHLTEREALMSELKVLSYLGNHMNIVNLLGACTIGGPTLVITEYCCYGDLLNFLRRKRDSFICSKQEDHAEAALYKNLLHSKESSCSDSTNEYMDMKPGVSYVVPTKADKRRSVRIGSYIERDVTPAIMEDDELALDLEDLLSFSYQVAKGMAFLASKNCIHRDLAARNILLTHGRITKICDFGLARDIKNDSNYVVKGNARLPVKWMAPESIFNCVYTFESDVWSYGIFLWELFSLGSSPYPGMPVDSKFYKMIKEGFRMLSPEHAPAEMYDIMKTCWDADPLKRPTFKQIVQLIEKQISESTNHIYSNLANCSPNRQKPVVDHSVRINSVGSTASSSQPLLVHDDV

| SMILES | Residual activity ([1]; MAP3K7/MAP3K7IP1, 1.0E-06 M) | Residual activity ([1]; MAP3K7/MAP3K7IP1, 1.0E-07 M) | Residual activity, SYK aa1-635 ([2]; assay conc. 1.0E-06 M) | Residual activity, SYK aa1-635 ([2]; assay conc. 1.0E-07 M) | Residual activity ([3]; 1.0E-06 M) | Residual activity ([3]; 1.0E-07 M) | Residual activity ([4]; EPHB1, 1.0E-06 M) | Residual activity ([4]; EPHB1, 1.0E-07 M) | Residual activity, STK25 ([5]; assay conc. 1.0E-06 M) | Residual activity, STK25 ([5]; assay conc. 1.0E-07 M) |
| --- | --- | --- | --- | --- | --- | --- | --- | --- | --- | --- |
| C#Cc1cc(Nc2ncnc3cc(I)ccc23)ccc1Cl [Compound 41] | 87 % of control | 98 % of control | 94 % of control | 94 % of control | 121 % of control | 128 % of control | 87 % of control | 103 % of control | 100 % of control | 95 % of control |
| C#Cc1cc(Nc2ncnc3cc(OC)c(OC)cc23)ccc1Cl [Compound 45] | 79 % of control | 81 % of control | 104 % of control | 105 % of control | 105 % of control | 124 % of control | 82 % of control | 86 % of control | 104 % of control | 111 % of control |
